Laboratory results: patent US10016378B2, “Compositions and methods for inhibiting intimal hyperplasia” (priority 2014, dated 2018)
“Also recorded” adds a separate entry of the source.

Legend:
[1] = Side-effects in the various in vivo models
[2] = tested on: balloon-injured rat aortas; assay: Balloon injury (abdominal aortic denudation) of Lewis rat aortas; type: in vivo, Lewis rats
Procedure: For example, abdominal aortic denudation in Lewis rats was performed to induce neointimal proliferation. […] The development of intimal hyperplasia was analyzed by histopathology. Confocal immunofluorescence microscopy and 3-dimensional reconstruction was performed to identify cell proliferation (Ki67) and apoptosis (TUNEL).

[3] = tested on: human vascular SMCs; assay: Cultured human vascular SMCs, PDGF stimulation / staurosporine apoptosis induction; type: cell-based; details: VDAC closure/inhibition
Excerpt: Proliferation and apoptosis leveled off after twenty eight (28) days when there was also no further progression of myointimal disease (FIGS. 1c, 1e). […] Human vascular SMCs were isolated from fresh hMA and characterized (Extended Data FIGS. 4e-4f). PDGF was then shown to induce ΔΨm hyperpolarization in cultured SMCs (Extended Data FIG. 4g), similar to the ΔΨm hyperpolarization previous observed in injured hMAs (FIG. 1f). Thus, mitochondrial ΔΨm hyperpolarization in myointimal SMCs and cultured SMCs coincided with the availability of PDGF.

SMILES: O=C(O)C(Cl)Cl [DCA, dichloroacetate]
- side-effects or off-target effects [1]: didn't show any side-effects or off-target effects
- luminal obliteration (intimal hyperplasia) ([2]; DCA treatment for 28 days via drinking water (0.75 g/L), p=0.006 vs. untreated 28-day control (24.2±3.5%)): 7.9±6.3%
- luminal obliteration (neointimal formation) ([2]; delayed DCA treatment starting on day 14, p=0.001 vs. untreated 28-day control): 3.5±2.9%
- vessel re-endothelialization ([2]; in vivo, after mechanical endothelial denudation): does not impair; also recorded: did not prevent vessel re-endothelialization; also recorded: nor inhibited vessel re-endothelialization

SMILES: O=S(=O)(O)c1cc(N=C=S)ccc1C=Cc1ccc(N=C=S)cc1S(=O)(=O)O [DIDS]
- SMC ΔΨm [3]: caused ΔΨm hyperpolarization; also recorded: increased
- apoptosis ([3]; staurosporine-induced): rendered SMCs resistant; also recorded: reduced

SMILES: Cc1ccc(NC(=O)c2ccc(CN3CCN(C)CC3)cc2)cc1Nc1nccc(-c2cccnc2)n1 [imatinib]
- myointimal lesions ([2]; compared to untreated control 28 vessels): only minor lesions
